In patent US10093675B2, “6,8-disubstituted-9-(heterocyclyl)purines, compositions containing these derivatives and their use in cosmetic and medicinal applications” (USTAV EXPERIMENTALNI BOTANIKY AV CR, V.V.I., priority 2014, dated 2018):

Assays:
C. elegans fem-1(hc17) = experiment: Lifespan of C. elegans; format: in vivo; details: 100 microM, treated from 4th day of adulthood; DMSO vehiculum 12.98
Source text: C. elegans is a standard model of aging. Its relevance for human aging is generally accepted based primarily on molecular similarity in aging mechanisms and evolutionary conservation of several pathways related to health- and life-span including insulin/IGF-I signaling. (Olsen et. al 2006, doi: 10.1196/annals.1354.015) It is used for drug screening campaigns (reviewed e.g. in Kaletta et al. 2006, doi: 10.1038/nrd2031) including those searching for compounds with cytoprotective activity. Compounds with a life-span extending effect in C. elegans and known health benefits in human include resveratrol, ECG and curcumin (Liao et, al 2011, doi: 10.1016/j.mad.2011.07.008; Wood et al. 2004, doi: 10.1038/nature02789; Abbas et al. 2009, doi: 10.1055/s-0028-1088378). The strain used in this experiment was fem-1(hc17). When grown at 25° C. all animals develop into females which prevents further reproduction and contamination of experiment with progeny. Age-synchronized adults (obtained by sodium hypochlorite treatment) were maintained in liquid S-complete medium. […] Living worms (i.e those moving when exposed to intensive light) were counted in a microscope every 2-3 days until the worms reached 22nd day of adulthood. The effects of the compounds on worm life-span were evaluated in software OASIS (Yang et al 2011, doi: 10.1371/journal.pone.002352).

[1] = tested on: human diploid fibroblasts (HDF cells; HDF25, HDF45, HDF80); experiment: Inhibition of human cell aging: senescent cells by beta-galactosidase staining; format: cell-based
Procedure, shortened: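 Cells of passages 25, 45 and 80 fixed 5 min at room temperature in 2% formaldehyde/0.2% glutaraldehyde in PBS, then incubated at 37° C with beta-galactosidase substrate. Senescent cells identified by blue staining.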

With `c1ccc(CNc2ncnc3nc[nH]c23)cc1` [6-benzylaminopurine, reference compound] the “restricted mean of life-span” value (C. elegans fem-1(hc17)) was 12.95, the “SENESCENT CELLS (%) HDF25” value ([1]; human diploid fibroblasts passage 25, beta-galactosidase staining) was 5% and the “SENESCENT CELLS (%) HDF45” value ([1]; human diploid fibroblasts passage 45, beta-galactosidase staining) was 9%. For the same molecule, the “SENESCENT CELLS (%) HDF80” value ([1]; human diploid fibroblasts passage 80, beta-galactosidase staining) was 45%.
